Experimental data from ChEMBL document CHEMBL3792336, “Synthesis and antitumor activity of ATB-429 derivatives containing a nitric oxide-releasing moiety” (Bioorg Med Chem Lett, 2016).
Blank lines part the entries; values can stand above or below the compound they belong to.

Tests used:
[1] = system: MCF7; experiment: Antiproliferative activity against human MCF7 cells after 72 hrs by MTT assay; type: functional, cell-based; settings: MCF7, 72 h
[2] = Antiproliferative activity against human PANC1 cells after 72 hrs by MTT assay; type: functional, cell-based; settings: PANC-1, 72 h
[3] = system: A549; experiment: Antiproliferative activity against human A549 cells after 72 hrs by MTT assay; type: functional, cell-based; settings: A549, 72 h
[4] = system: HT-29; experiment: Antiproliferative activity against human HT-29 cells after 72 hrs by MTT assay; type: functional, cell-based; settings: HT-29, 72 h
[5] = Antiproliferative activity against human HL60 cells at 30 uM after 72 hrs by MTT assay; type: functional; settings: HL-60, 72 h
[6] = system: MCF7; experiment: Antiproliferative activity against human MCF7 cells at 30 uM after 72 hrs by MTT assay; type: functional; settings: MCF7, 72 h
[7] = Antiproliferative activity against human PANC1 cells at 30 uM after 72 hrs by MTT assay; type: functional; settings: PANC-1, 72 h
[8] = system: HT-29; experiment: Antiproliferative activity against human HT-29 cells at 30 uM after 72 hrs by MTT assay; type: functional; settings: HT-29, 72 h
[9] = Antiproliferative activity against human DU145 cells at 30 uM after 72 hrs by MTT assay; type: functional; settings: DU-145, 72 h
[10] = system: A549; experiment: Antiproliferative activity against human A549 cells at 30 uM after 72 hrs by MTT assay; type: functional; settings: A549, 72 h
[11] = Antiproliferative activity against human HL60 cells after 72 hrs by MTT assay; type: functional, cell-based; settings: HL-60, 72 h
[12] = Antiproliferative activity against human DU145 cells after 72 hrs by MTT assay; type: functional, cell-based; settings: DU-145, 72 h

SMILES: O=C(Nc1cccc(C(F)(F)F)c1)Nc1ccc(OC(=O)CCCO[N+](=O)[O-])c(C(=O)Oc2ccc(-c3cc(=S)ss3)cc2)c1
inhibition at 30 µM [5]: 14.1% | inhibition at 30 µM [6]: -6.78% | inhibition at 30 µM [7]: -5.71% | inhibition at 30 µM [8]: 13.2% | inhibition at 30 µM [9]: -14.2% | inhibition at 30 µM [10]: -22.1%

SMILES: O=C(Nc1cccc(Cl)c1)Nc1ccc(OC(=O)CCCO[N+](=O)[O-])c(C(=O)Oc2ccc(-c3cc(=S)ss3)cc2)c1
inhibition at 30 µM [5]: 10.9% | inhibition at 30 µM [6]: 6.1% | inhibition at 30 µM [7]: -17.3% | inhibition at 30 µM [8]: 21.5% | inhibition at 30 µM [9]: 5.49% | inhibition at 30 µM [10]: -23.3%

SMILES: Nc1ccc(OCCCOc2no[n+]([O-])c2S(=O)(=O)c2ccccc2)c(C(=O)Oc2ccc(-c3cc(=S)ss3)cc2)c1
IC50 [1]: 3050 nM | IC50 [2]: 971 nM | IC50 [3]: 3280 nM | IC50 [4]: 559 nM | inhibition at 30 µM [5]: 87.3% | inhibition at 30 µM [6]: 92.1% | inhibition at 30 µM [7]: 97.5% | inhibition at 30 µM [8]: 103% | inhibition at 30 µM [9]: 94.8% | inhibition at 30 µM [10]: 100% | IC50 [12]: 2240 nM

SMILES: Cc1cccc(NC(=O)Nc2ccc(OC(=O)CCCO[N+](=O)[O-])c(C(=O)Oc3ccc(-c4cc(=S)ss4)cc3)c2)c1
inhibition at 30 µM [5]: 7.34% | inhibition at 30 µM [6]: 13.9% | inhibition at 30 µM [7]: -14.2% | inhibition at 30 µM [8]: 9.56% | inhibition at 30 µM [9]: -19.3% | inhibition at 30 µM [10]: -19.8%

SMILES: COc1ccc(NC(=O)Nc2ccc(OC(=O)CCCO[N+](=O)[O-])c(C(=O)Oc3ccc(-c4cc(=S)ss4)cc3)c2)cc1
inhibition at 30 µM [5]: 8.3% | inhibition at 30 µM [6]: 16% | inhibition at 30 µM [7]: 2.19% | inhibition at 30 µM [8]: 12.1% | inhibition at 30 µM [9]: -6.39% | inhibition at 30 µM [10]: 3.19%

SMILES: Nc1ccc(OC(=O)CCCO[N+](=O)[O-])c(C(=O)Oc2ccc(-c3cc(=S)ss3)cc2)c1
inhibition at 30 µM [5]: 8.73% | inhibition at 30 µM [6]: -5.55% | inhibition at 30 µM [7]: -10.5% | inhibition at 30 µM [8]: -13.3% | inhibition at 30 µM [9]: -7.67% | inhibition at 30 µM [10]: -18.4%

SMILES: O=C(Nc1ccc(F)cc1)Nc1ccc(OC(=O)CCCO[N+](=O)[O-])c(C(=O)Oc2ccc(-c3cc(=S)ss3)cc2)c1
inhibition at 30 µM [5]: 8.68% | inhibition at 30 µM [6]: 19.1% | inhibition at 30 µM [7]: -12.9% | inhibition at 30 µM [8]: 6.92% | inhibition at 30 µM [9]: 15.3% | inhibition at 30 µM [10]: -27.2%

SMILES: O=C(Nc1ccc(OC(=O)CCCO[N+](=O)[O-])c(C(=O)Oc2ccc(-c3cc(=S)ss3)cc2)c1)Nc1ccc(F)cc1F
inhibition at 30 µM [5]: 0.43% | inhibition at 30 µM [6]: -6.87% | inhibition at 30 µM [7]: -14.8% | inhibition at 30 µM [8]: -6.41% | inhibition at 30 µM [9]: -7.47% | inhibition at 30 µM [10]: -28%

More lines, main results first:

IC50 [1]: 2680 nM | IC50 [3]: 4170 nM | IC50 [4]: 769 nM
SMILES: Nc1ccc(OCCOc2no[n+]([O-])c2S(=O)(=O)c2ccccc2)c(C(=O)Oc2ccc(-c3cc(=S)ss3)cc2)c1
IC50 [2]: 1860 nM | inhibition at 30 µM [5]: 92.3% | inhibition at 30 µM [6]: 90.1% | inhibition at 30 µM [7]: 96.6% | inhibition at 30 µM [8]: 102% | inhibition at 30 µM [9]: 93.8% | inhibition at 30 µM [10]: 100% | IC50 [11]: 1880 nM | IC50 [12]: 1270 nM

IC50 [4]: 536 nM
SMILES: CC(C)(C)OC(=O)Nc1ccc(OCCOCCOc2no[n+]([O-])c2S(=O)(=O)c2ccccc2)c(C(=O)Oc2ccc(-c3cc(=S)ss3)cc2)c1
IC50 [2]: 2800 nM | inhibition at 30 µM [5]: 84.5% | inhibition at 30 µM [6]: 63.1% | inhibition at 30 µM [7]: 97.9% | inhibition at 30 µM [8]: 103% | inhibition at 30 µM [9]: 54.7% | inhibition at 30 µM [10]: 18.7%

IC50 [1]: 11900 nM | IC50 [4]: 5440 nM
SMILES: Nc1ccc(OCCOCCOc2no[n+]([O-])c2S(=O)(=O)c2ccccc2)c(C(=O)Oc2ccc(-c3cc(=S)ss3)cc2)c1
IC50 [2]: 8000 nM | inhibition at 30 µM [5]: 84.4% | inhibition at 30 µM [6]: 90% | inhibition at 30 µM [7]: 97.1% | inhibition at 30 µM [8]: 101% | inhibition at 30 µM [9]: 63.2% | inhibition at 30 µM [10]: 62.8%

IC50 [1]: 3540 nM | IC50 [3]: 2630 nM | IC50 [4]: 1920 nM
SMILES: COc1cc2/c(=N/c3ccc(Br)cc3F)nc[nH]c2cc1OCC1CCN(C)CC1 [VANDETANIB]
IC50 [2]: 4110 nM | IC50 [11]: 1490 nM | IC50 [12]: 1970 nM

IC50 [4]: 926 nM
SMILES: CC(C)(C)OC(=O)Nc1ccc(OCCCOc2no[n+]([O-])c2S(=O)(=O)c2ccccc2)c(C(=O)Oc2ccc(-c3cc(=S)ss3)cc2)c1
IC50 [2]: 3020 nM | inhibition at 30 µM [5]: 84% | inhibition at 30 µM [6]: 25.2% | inhibition at 30 µM [7]: 97.4% | inhibition at 30 µM [8]: 103% | inhibition at 30 µM [9]: 67.9% | inhibition at 30 µM [10]: -23.8%

IC50 [4]: 256 nM
SMILES: CC(C)(C)OC(=O)Nc1ccc(OCCOc2no[n+]([O-])c2S(=O)(=O)c2ccccc2)c(C(=O)Oc2ccc(-c3cc(=S)ss3)cc2)c1
IC50 [2]: 1450 nM | inhibition at 30 µM [5]: 84.6% | inhibition at 30 µM [6]: 83.1% | inhibition at 30 µM [7]: 97.1% | inhibition at 30 µM [8]: 103% | inhibition at 30 µM [9]: 61.6% | inhibition at 30 µM [10]: 88.5%
